Data published in PubChem BioAssay (NCI).
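These data come from cells grown in 96-well plates and exposed to compound for 48 hours at five concentrations. TGI: concentration producing complete growth inhibition.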

Columns and labels:
Assay in all cases: growth of human tumour cells (NCI), 48 h
CAKI-1 renal = test system: CAKI-1 renal
CCRF-CEM leukemia = test system: CCRF-CEM leukemia
EKVX NSCLC = test system: EKVX NSCLC
HCT-15 colon = test system: HCT-15 colon
HOP-62 NSCLC = test system: HOP-62 NSCLC
IGROV1 ovarian = test system: IGROV1 ovarian
MALME-3M melanoma = test system: MALME-3M melanoma
OVCAR-4 ovarian = test system: OVCAR-4 ovarian
SF-539 CNS = test system: SF-539 CNS
SK-MEL-2 melanoma = test system: SK-MEL-2 melanoma
SK-OV-3 ovarian = test system: SK-OV-3 ovarian
SN12C renal = test system: SN12C renal
SNB-75 CNS = test system: SNB-75 CNS
U251 CNS = test system: U251 CNS
UACC-62 melanoma = test system: UACC-62 melanoma
A498 renal = test system: A498 renal
DU-145 prostate = test system: DU-145 prostate
MDA-N = test system: MDA-N
PC-3 prostate = test system: PC-3 prostate
NCI/ADR-RES ovarian = test system: NCI/ADR-RES ovarian

Compound | TGI (CAKI-1 renal) | TGI (CCRF-CEM leukemia) | TGI (EKVX NSCLC) | TGI (HCT-15 colon) | TGI (HOP-62 NSCLC) | TGI (IGROV1 ovarian) | TGI (MALME-3M melanoma) | TGI (OVCAR-4 ovarian) | TGI (SF-539 CNS) | TGI (SK-MEL-2 melanoma) | TGI (SK-OV-3 ovarian) | TGI (SN12C renal) | TGI (SNB-75 CNS) | TGI (U251 CNS) | TGI (UACC-62 melanoma) | TGI (A498 renal) | TGI (DU-145 prostate) | TGI (MDA-N) | TGI (PC-3 prostate) | TGI (NCI/ADR-RES ovarian)
CO/S(=N/S(=O)(=O)c1ccccc1)c1ccccc1[N+](=O)[O-] (stereo unspecified) | > 100 µM | > 100 µM | > 100 µM | > 100 µM | > 100 µM | > 100 µM | > 100 µM | > 100 µM | > 100 µM | > 100 µM | > 100 µM | > 100 µM | > 100 µM | > 100 µM | > 100 µM | – | – | – | – | –
O=P(O)(O)c1ccc2c(c1)OCCOCCOCCOCCO2 | – | > 100 µM | > 100 µM | > 100 µM | > 100 µM | > 100 µM | > 100 µM | – | > 100 µM | – | > 100 µM | > 100 µM | > 100 µM | – | > 100 µM | > 100 µM | > 100 µM | > 100 µM | > 100 µM | –
CC(C)CC(C#CCCOC(=O)c1ccccc1)OC(=O)c1ccccc1 (stereo unspecified) | – | > 10 µM | > 10 µM | > 10 µM | > 10 µM | > 10 µM | > 10 µM | – | > 10 µM | > 10 µM | > 10 µM | > 10 µM | > 10 µM | > 10 µM | > 10 µM | > 10 µM | > 10 µM | > 10 µM | > 10 µM | –
O=CC1=CCCN(CCc2c[nH]c3ccccc23)C1 | 141 µM | > 393 µM | 202 µM | 83.2 µM | 104 µM | 176 µM | 122 µM | – | 108 µM | 119 µM | 224 µM | 109 µM | – | 105 µM | 111 µM | – | – | – | – | –
CS(=O)(=O)c1ccc(C(=O)O[C@@H]2C(=O)N3CC[C@H]4OC(O)[C@@H]2[C@H]43)cc1 (stereo partly specified) | > 100 µM | – | > 100 µM | > 100 µM | > 100 µM | – | – | > 100 µM | > 100 µM | > 100 µM | > 100 µM | – | > 100 µM | > 100 µM | > 100 µM | > 100 µM | > 100 µM | – | > 100 µM | > 100 µM
COc1ccc(C/C=C(\C)CCO)cc1 | 94.3 µM | > 100 µM | > 100 µM | > 100 µM | > 100 µM | > 100 µM | – | > 100 µM | > 100 µM | > 100 µM | > 100 µM | > 100 µM | > 100 µM | > 100 µM | > 100 µM | – | > 100 µM | > 100 µM | > 100 µM | > 100 µM
CSc1nc2nccnc2c(=O)[nH]1 | > 100 µM | > 100 µM | > 100 µM | > 100 µM | > 100 µM | > 100 µM | > 100 µM | > 100 µM | – | > 100 µM | > 100 µM | > 100 µM | > 100 µM | > 100 µM | > 100 µM | > 100 µM | – | – | – | –
O=c1c2ccccc2ncn1COCc1ccccc1 | – | > 100 µM | > 100 µM | > 100 µM | – | > 100 µM | – | > 100 µM | > 100 µM | > 100 µM | > 100 µM | – | – | > 100 µM | > 100 µM | > 100 µM | > 100 µM | – | – | > 100 µM
CC1=C(C(=O)O)N2C(=O)[C@@H](NC(=O)C(c3ccccc3)N3CSC(=S)N(C(C)C)C3)C2SC1 (stereo partly specified) | > 100 µM | > 100 µM | > 100 µM | > 100 µM | > 100 µM | > 100 µM | > 100 µM | > 100 µM | > 100 µM | > 100 µM | > 100 µM | > 100 µM | > 100 µM | > 100 µM | > 100 µM | > 100 µM | – | – | – | –
CCCNC(=O)Cn1c2c(c3ccccc31)CCCC2 | > 100 µM | > 100 µM | > 100 µM | > 100 µM | > 100 µM | > 100 µM | > 100 µM | > 100 µM | > 100 µM | > 100 µM | > 100 µM | > 100 µM | – | – | > 100 µM | > 100 µM | – | > 100 µM | > 100 µM | > 100 µM
OC(c1cc2ccccc2[nH]1)C(O)(c1cc2ccccc2[nH]1)c1cc2ccccc2[nH]1 (stereo unspecified) | 51.9 µM | > 245 µM | 60.9 µM | 33 µM | 48.3 µM | 47.9 µM | 59.7 µM | – | 88.7 µM | 50 µM | 79.1 µM | 11.4 µM | – | 78.4 µM | 23.2 µM | – | – | – | – | –
O=C(NC1CCCCC1)NC12CC3CC(CC(F)(C3)C1)C2 | – | > 100 µM | > 100 µM | – | > 100 µM | > 100 µM | > 100 µM | – | > 100 µM | > 100 µM | > 100 µM | – | > 100 µM | > 100 µM | > 100 µM | > 100 µM | – | – | – | –
CC1=C(O)C(=O)C2C(=O)C1C(C)C2c1ccccc1 (stereo unspecified) | > 100 µM | > 100 µM | > 100 µM | > 100 µM | > 100 µM | > 100 µM | > 100 µM | > 100 µM | > 100 µM | > 100 µM | > 100 µM | – | > 100 µM | > 100 µM | > 100 µM | > 100 µM | – | – | – | –
CC(C)(Oc1ccc2c(=O)cc(-c3ccc(Cl)cc3)oc2c1)C(=O)Nc1c(Cl)cccc1Cl | > 100 µM | > 100 µM | > 100 µM | > 100 µM | > 100 µM | > 100 µM | > 100 µM | – | > 100 µM | > 100 µM | > 100 µM | – | – | > 100 µM | > 100 µM | > 100 µM | – | – | – | –
COC(=O)CC(C(C(=O)OCc1ccccc1)C(C)O)N1C(=O)OCC1c1ccccc1 (stereo unspecified) | – | > 100 µM | > 100 µM | > 100 µM | > 100 µM | > 100 µM | > 100 µM | > 100 µM | > 100 µM | > 100 µM | – | > 100 µM | 89.8 µM | > 100 µM | > 100 µM | > 100 µM | – | – | – | –
CCCCN(C)CC(C(C)=O)C(c1ccccc1)c1c(O)c2ccccc2oc1=O (stereo unspecified) | > 100 µM | > 100 µM | > 100 µM | > 100 µM | > 100 µM | > 100 µM | > 100 µM | > 100 µM | > 100 µM | > 100 µM | > 100 µM | > 100 µM | > 100 µM | > 100 µM | > 100 µM | > 100 µM | – | – | – | –
COC1CC(O[C@H]2CC[C@@]3(C)C(=CCC4(O)C3CCC35C(=O)OC6(C)O[C@@]43CCC65)C2)OC(C)C1O (stereo partly specified) | > 100 µM | > 100 µM | > 100 µM | > 100 µM | > 100 µM | > 100 µM | > 100 µM | > 100 µM | > 100 µM | > 100 µM | > 100 µM | > 100 µM | > 100 µM | > 100 µM | > 100 µM | > 100 µM | – | – | – | –
CC12CP(=O)(O)CC1C2(Cl)Cl (stereo unspecified) | > 100 µM | > 100 µM | > 100 µM | > 100 µM | > 100 µM | > 100 µM | > 100 µM | > 100 µM | > 100 µM | > 100 µM | > 100 µM | > 100 µM | > 100 µM | > 100 µM | > 100 µM | > 100 µM | > 100 µM | – | > 100 µM | > 100 µM
Cc1ccc([N+](=O)[O-])cc1NC(=O)C(=O)Cc1nc2ccc(C(=O)c3ccccc3)cc2[nH]c1=O | > 100 µM | > 100 µM | > 100 µM | > 100 µM | > 100 µM | > 100 µM | > 100 µM | > 100 µM | > 100 µM | – | > 100 µM | > 100 µM | > 100 µM | – | > 100 µM | – | – | – | – | –
CC(C)(C)n1[nH]c(=O)n(C(C)(C)C)c1=O | > 100 µM | – | – | > 100 µM | – | – | – | > 100 µM | > 100 µM | > 100 µM | > 100 µM | > 100 µM | > 100 µM | > 100 µM | > 100 µM | > 100 µM | > 100 µM | > 100 µM | > 100 µM | –
COc1nc2c(c(=O)[nH]1)N=C(c1ccccc1)CC(c1ccccc1)N2 (stereo unspecified) | > 100 µM | > 100 µM | > 100 µM | – | > 100 µM | > 100 µM | > 100 µM | 81.4 µM | > 100 µM | > 100 µM | > 100 µM | > 100 µM | 52.5 µM | > 100 µM | > 100 µM | > 100 µM | > 100 µM | – | > 100 µM | > 100 µM
COc1ccccc1N1C(=O)CSC1c1cccc(Oc2ccccc2)c1 (stereo unspecified) | 74.5 µM | > 100 µM | 43.4 µM | 37.4 µM | 45.7 µM | – | 30.6 µM | 39.6 µM | 31.6 µM | 29.9 µM | > 100 µM | 31.9 µM | 41.7 µM | 30.7 µM | 30.1 µM | 36.6 µM | 38.7 µM | – | 40 µM | 46.2 µM
CC(=O)/C(=C/N1CC(=O)NC1=S)C(=O)Nc1ccccc1C | > 100 µM | – | > 100 µM | > 100 µM | > 100 µM | > 100 µM | – | > 100 µM | > 100 µM | > 100 µM | > 100 µM | > 100 µM | > 100 µM | > 100 µM | – | > 100 µM | > 100 µM | > 100 µM | – | > 100 µM
